One data set in a line: toxicity in mice. The following applies: mouse, in vivo.
A further data set concerns P-388 leukemia. Kind of data set: antitumor activity, intravenously implanted P-388 leukemia. It counts as in vivo, mice.
[1] abbreviates: ip qd 1→9, doses as T/C lines, same order.
The mark [2] stands for this setting: ip qd 1→11, doses as T/C lines, same order.
Where [3] appears, read: iv days 1,4,7, doses as MST lines, same order.

Values joined by “and” are separate entries in the source; they are usually repeats but may differ in a detail not shown here. Identical values can stand only once. Like-named read-outs stand apart in the source and are kept apart here.

Description for B16 melanoma: (§1) Lymphocytic leukemia P-388, lymphoid leukemia L-1210, melanotic melanoma B16 and Lewis lung carcinoma were implanted intraperitoneally into male BDF1 mice at an inoculum size of 10^6, 10^5, 5×10^5 and 10^6 cells per mouse, respectively. Graded doses of test compounds were administered to the mice intraperitoneally 24 hours after the tumor inoculation.
(§2) Death or survival of the treated and non-treated mice was recorded daily, and the median survival time (MST) was calculated for each of the test (T) and control (C) groups.
Description for Lewis lung carcinoma: as §1, §2

The T/C is the result in the treated group divided by that in the control group, in per cent. Broadly, the LD50 is the dose at which mortality reaches 50%. Regarding `CO[C@@H]1[C@H](O)C[C@@H](O[C@@H]2C[C@H](Oc3cc4cc5c(c(O)c4c(O)c3C)C(=O)[C@@H](O[C@H]3C[C@@H](O[C@H]4C[C@@H](O[C@H]6C[C@](C)(O)[C@@H](OC(C)=O)[C@H](C)O6)[C@H](O)[C@@H](C)O4)[C@H](O)[C@@H](C)O3)[C@H]([C@H](OC)C(=O)[C@@H](O)[C@@H](C)O)C5)O[C@H](C)[C@@H]2OC(C)=O)O[C@@H]1C` [Chromomycin A3, chromomycin A3], the T/C was determined as 109% in the data set on B16 melanoma (ip qd 1→9, 0.003 mg/kg/day) and 105% with Lewis lung carcinoma (ip qd 1→11, 0.003 mg/kg/day). For the same compound, the “Average wt. change on day 5” value with B16 melanoma (setting [1]) was “+2.2 g”; in the data set on Lewis lung carcinoma (mouse, in vivo, ip) it was “+1.7 g”. Further, the MST in the data set on B16 melanoma (setting [1]) is 25.5 days and 23.0 days and 21.0 days and 18.0 days; in the data set on Lewis lung carcinoma (setting [2]), 21.5 days and 17.0 days and 11.5 days. The “Survivors on day 5” value in the data set with B16 melanoma (setting [1]) is given as 6/6; with Lewis lung carcinoma (setting [2]), 6/6; in the data set on Lewis lung carcinoma (mouse, in vivo, ip), 5/5. The “Survivors on day 45” value was 0/6 in the data set with B16 melanoma (setting [1]); 1/6 and 0/5 and 0/6 with Lewis lung carcinoma (setting [2]). Moreover, the LD50 was found to be 0.23 mg/kg in the data set “toxicity in mice” (ip, LD50, multiple dose (qd 1→9) i.p.); 0.81 mg/kg in the data set “toxicity in mice” (ip, LD50, single dose i.p.); 0.41 mg/kg in “toxicity in mice” (iv, LD50, single dose i.v.).
In the data set on P-388 leukemia (iv days 1,4,7, 1 mg/kg/day), `COc1cccc2c1C(=O)c1c(O)c3c(c(O)c1C2=O)C[C@@](O)(C(=O)CO)C[C@@H]3O[C@H]1C[C@H](N)[C@H](O)[C@H](C)O1` [Adriamycin, adriamycin] had a T/C of 100%. In the data set on P-388 leukemia (iv days 1,4,7, 10 mg/kg/day), the T/C came out at 100%. In the data set on P-388 leukemia (setting [3]), the “Survivors on day 5” value was 0/6 and 6/6; the “Survivors on day 45” value is recorded as 0/6.
